Where two headings read alike, the source gives them in different places.
Columns and labels:
[1] = tested on: LS174T cells; test: MTT cytotoxicity test in LS174T cells; settings: for viability of LS174T cells (in words): MTT, 24 h, LAN up to 100 µM, OME up to 250 µM
Experimental: (§1) A stably transfected gene reporter cell line AZ-GR was used for assessment of GR transcriptional activity. A transiently transfected LS174T human colon adenocarcinoma cells were used for assessment of PXR transcriptional activity. […] The reporter plasmid was transiently transfected to LS174T cells by lipofection (FuGENE 6) with 300 ng/well of p3A4-luc reporter in 24-well plates. Cells were incubated for 24 h with tested compounds and/or vehicle (DMSO; 0.1% v/v), in the presence or absence of RIF (10 µM; LS174T cells) or DEX (100 nM; AZ-GR cells). After the treatments, cells were lysed and luciferase activity was measured. In parallel, cell viability was determined by conventional MTT test.
(§2) Gene reporter assays were performed in two different experimental layouts.
(§3) Treatments were performed in triplicates. Upper panels: MTT test was performed and absorbance was measured at 540 nm. The data are the mean from experiments from three consecutive passages of cells and are expressed as a percentage of viability of control cells. The values of IC50 were calculated and are indicated in a figure. […] The data are the mean from experiments from four consecutive passages of cells and are expressed as a percentage of maximal induction attained by RIF. […] The data are the mean from experiments from four consecutive passages of cells and are expressed as a fold induction of luciferase activity over control cells.

[2] = tested on: AZ-GR cells; test: MTT cytotoxicity test in AZ-GR cells
Experimental: as §1
as §3, with “Model activator of GR was dexamethasone (DEX; 0.1 µM). Treatments” for “Treatments”

[3] = tested on: CYP3A4 protein in HepG2 cells; test: CYP3A4 protein expression (Western blot) in HepG2 cells; settings: 48 h
Experimental: Total protein extracts were prepared as described elsewhere. SDS–PAGE gels (10%) were run on a BioRad apparatus according to the general procedure followed by the protein transfer onto PVDF membrane. The membrane was saturated with 5% non-fat dried milk for 1 h at room temperature. […] Chemiluminescent detection was performed using horseradish peroxidase-conjugated secondary antibodies (Santa Cruz Biotechnology) and Western blotting Luminol kit (Santa Cruz Biotechnology). The density of bands was measured by densitometry.
Density of bands was quantified by densitometry.

[4] = molecular target: T1, glucocorticoid receptor GR (Homo sapiens, UniProt P04150); settings: AZ-GR cells, 24 h, agonist mode
T1 sequence (P04150 1-777): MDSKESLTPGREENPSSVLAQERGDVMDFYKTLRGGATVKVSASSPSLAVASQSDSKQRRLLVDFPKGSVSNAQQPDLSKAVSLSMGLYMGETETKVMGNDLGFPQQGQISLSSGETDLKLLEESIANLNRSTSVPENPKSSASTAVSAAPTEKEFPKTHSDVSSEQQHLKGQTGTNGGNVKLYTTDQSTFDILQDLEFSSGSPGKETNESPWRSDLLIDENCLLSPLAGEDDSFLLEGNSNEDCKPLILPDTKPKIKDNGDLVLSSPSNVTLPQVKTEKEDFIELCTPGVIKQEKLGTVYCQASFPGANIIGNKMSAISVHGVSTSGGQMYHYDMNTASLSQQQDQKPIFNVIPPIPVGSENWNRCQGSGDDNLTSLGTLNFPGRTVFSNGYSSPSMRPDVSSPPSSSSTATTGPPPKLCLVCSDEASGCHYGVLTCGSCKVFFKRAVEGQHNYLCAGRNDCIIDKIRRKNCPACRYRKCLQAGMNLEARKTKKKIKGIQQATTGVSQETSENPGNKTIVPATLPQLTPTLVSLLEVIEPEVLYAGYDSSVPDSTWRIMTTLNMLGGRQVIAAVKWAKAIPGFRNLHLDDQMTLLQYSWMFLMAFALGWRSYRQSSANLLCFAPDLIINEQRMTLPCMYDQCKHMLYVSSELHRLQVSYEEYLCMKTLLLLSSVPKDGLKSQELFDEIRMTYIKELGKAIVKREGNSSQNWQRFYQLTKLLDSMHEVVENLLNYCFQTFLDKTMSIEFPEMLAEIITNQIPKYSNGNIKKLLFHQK
Experimental: as §1
as §3, with “Model activator of GR was dexamethasone (DEX; 0.1 µM). Treatments” for “Treatments”

[5] = tested on: CYP3A4 mRNA in primary human hepatocytes; parameters: method as in PMID 12695340; settings: 100 µM–200 µM OME; cited from earlier work
[6] = tested on: CYP3A4-mediated luciferase activity in HepG2 cells; parameters: method as in PMID 12235278, PMID 20832446; settings: HepG2 cells reporter gene assay; cited from earlier work
[7] = MTT cytotoxicity test in LS174T cells; settings: human, LS174T cells
Experimental: as §1, §2, §3

[8] = MTT cytotoxicity test in AZ-GR cells; settings: human, AZ-GR cells (stably transfected GR gene reporter cell line), cytotoxicity in AZ-GR cells IC50, MTT, 24 h
Experimental: as §1
as §3, with “Model activator of GR was dexamethasone (DEX; 0.1 µM). Treatments” for “Treatments”

[9] = molecular target: T1, glucocorticoid receptor GR; test: GR gene reporter assay in AZ-GR cells, antagonist mode with dexamethasone; format: cell-based; settings: in the presence of DEX 0.1 µM, 24 h, read-out: GR activation, antagonist mode IC50
Experimental: as §1
as §3, with “Model activator of GR was dexamethasone (DEX; 0.1 µM). Treatments” for “Treatments”

[10] = molecular target: T2, pregnane X receptor PXR (Homo sapiens, UniProt O75469); test: PXR gene reporter assay (p3A4-luc in LS174T cells), agonist mode
T2 sequence (O75469 1-434): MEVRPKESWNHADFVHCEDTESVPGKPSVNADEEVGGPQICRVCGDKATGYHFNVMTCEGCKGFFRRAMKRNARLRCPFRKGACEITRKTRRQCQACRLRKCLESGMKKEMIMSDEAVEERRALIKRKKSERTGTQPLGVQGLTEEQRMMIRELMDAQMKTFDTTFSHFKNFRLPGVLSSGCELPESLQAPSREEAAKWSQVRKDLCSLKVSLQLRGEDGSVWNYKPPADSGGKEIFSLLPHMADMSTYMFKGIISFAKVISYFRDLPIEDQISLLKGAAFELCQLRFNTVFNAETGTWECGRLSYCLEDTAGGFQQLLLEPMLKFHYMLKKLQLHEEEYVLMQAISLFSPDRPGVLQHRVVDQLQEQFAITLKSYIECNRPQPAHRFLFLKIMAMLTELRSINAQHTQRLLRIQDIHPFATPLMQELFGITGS
Experimental: as §1, §2, §3

In the case of `Cc1c(OCC(F)(F)F)ccnc1C[S+]([O-])c1nc2ccccc2[nH]1` (racemic) [rac-LAN, rac-lansoprazole], the IC50 [1] is reported as > 100 µM and the IC50 [2] is reported as 200 ± 19.5 µM.

In the case of `COc1ccc2[nH]c([S+]([O-])Cc3ncc(C)c(OC)c3C)nc2c1` (racemic) [rac-OME, rac-omeprazole], the IC50 [1] is reported as > 250 µM and the IC50 [2] is reported as > 250 µM.

With `Cc1c(OCC(F)(F)F)ccnc1C[S+]([O-])c1nc2ccccc2[nH]1` (stereo not drawn) [LAN, lansoprazole] the “induction of CYP3A4 protein (in words)” value [3] was “induced CYP3A4 protein”, the “viability of LS174T cells (in words)” value [1] was “did not observe significant decline in viability” and the “effect on basal activity of GR (in words)” value [4] was “weak effects on basal activity of GR”.

In the case of `COc1ccc2[nH]c([S+]([O-])Cc3ncc(C)c(OC)c3C)nc2c1` (stereo not drawn) [OME, omeprazole], the “viability of LS174T cells (in words)” value [1] is listed as “did not observe significant decline in viability”, the “CYP3A4 mRNA expression induction” value [5] is listed as 4 fold and the “induction of CYP3A4-mediated luciferase activity (in words)” value [6] is listed as “showed an induction of CYP3A4-mediated luciferase activity”.

With `Cc1c(OCC(F)(F)F)ccnc1C[S@@+]([O-])c1nc2ccccc2[nH]1` [R-LAN, R-lansoprazole] the IC50 at 24 h [7] was > 100 µM, the IC50 at 24 h [8] was 184 ± 2.9 µM and the IC50 [9] was ~100 µM.

For `COc1ccc2nc([S@+]([O-])Cc3ncc(C)c(OC)c3C)[nH]c2c1` [R-OME, R-omeprazole], the IC50 [1] was > 250 µM, the “PXR activation, agonist mode (in words)” value ([10]; 24 h, LS174T cells with p3A4-luc) was “strongly activated PXR in concentrations 100 µM and 250 µM” and the EC50 ([10]; read-out: PXR activation, agonist mode EC50, 24 h, LS174T cells with p3A4-luc, absence of RIF) was 25.3 ± 3.1 µM. For the same compound, the IC50 [2] was > 250 µM.

For `Cc1c(OCC(F)(F)F)ccnc1C[S@+]([O-])c1nc2ccccc2[nH]1` [S-LAN, S-lansoprazole], the “induction of CYP3A4 protein (in words)” value [3] was “strongest effects”, the IC50 [1] was > 100 µM and the IC50 [2] was 200 ± 6.5 µM.

In the case of `COc1ccc2nc([S@@+]([O-])Cc3ncc(C)c(OC)c3C)[nH]c2c1` [S-OME, S-omeprazole], the IC50 at 24 h [7] is reported as > 250 µM, the EC50 [10] is reported as 2 ± 0.6 µM and the “PXR activation, agonist mode (in words)” value ([10]; human, 24 h) is reported as “activated PXR in concentrations 10 µM and 100 µM with drop of activation at 250 µM”. The IC50 at 24 h [8] was 214 µM.

— paper PMC4139355 (PLoS ONE, 2014)
